# How the values were obtained:
# Format in all cases: cell-based
# [1] = system: C57BL/6 cultured neurites; test: Vincristine neuropathy in C57BL/6 mouse DRG cultures
# Procedure: (§1) DRGs were allowed to mature for 5 days to create a lush halo of neurites. […] This date was defined as treatment day 0. […] Cultures were monitored and imaged on day 0, day 4, day 8 and day 10 of treatment using video microscopy.
# (§2) Measures of axonal survival were the length of longest remaining axon, and the area of remaining DRG halo, as determined by serial phase-contrast video microscopy (FIG. 6). The axonal length was measured from the center of the DRG to the visible distal end of the axon. […] Data were thus analyzed as percent of day 0.
# C57BL/6 DRG axons = test: Vincristine withdrawal in C57BL/6 mouse DRG cultures; details: 0.05 μM vincristine for 24 hours, 4 days after exposure
# Procedure: The methods for DRG culture have been previously described.
# Cultures were measured for length of longest axon and area of the DRG halo at days 4, 8, 12, 16 and 20. Lengths were measured from the center of the DRG to the visible distal end of the axon, and areas were calculated by tracing the circumference crested by connecting the tips of the remaining axons. […] Comparisons were made between quantitative data for C57BL/6 and Wld^S axons. For assessment of growth, day 4 observations in Wld^S were compared to all succeeding days using ANOVA for repeated measures.
# rat DRG cultures = test: Resistance to vincristine-induced axonal degeneration in adenovirus-infected rat DRG cultures
# Procedure: Adenovirus was generated as previously described. Briefly, the modified transfer vector was linearized with NheI for preparation of the recombinant adenovirus. […] The transfected 293A cells were trypsinized and diluted with 293A cells, seeded into the 96-well tissue culture plates, and kept at 37 C, 5% CO2 for several days. […] Recombinant adenoviruses were purified from wild type viruses by the limiting dilution method. Adenovirus titers were determined by TCID-50 (Tissue Culture Infectious Dose).
# Cultures had extended neurites for 6 days before introduction of the transgene. Transgene expression, indicated by GFP fluorescence, was monitored by fluorescence microscopy.
# The methods for DRG culture have been previously described. […] Suppression of Schwann cell growth was accomplished by addition of fluorodeoxyuridine and uridine (both at a dose of 10^−6M, Sigma) on days 2-5.
# E15 DRG were grown in culture for 6 days and then exposed to adenovirus (with or without the Wld^Stransgene) as described above. […] Length and area measurements were performed and analyzed as described above for mouse cultures.
# Wld^S cultured neurites = test: Vincristine neuropathy in Wld^S mouse DRG cultures; details: for halo area at day 10 compared to day 0 / length of longest axons at day 10 compared to day 0: Wld^S
# Procedure: as §1, §2
# [2] = vincristine 0.01 μM, Day 4, C57BL/6
# [3] = vincristine 0.01 μM, Day 10, C57BL/6
# [4] = vincristine 0.02 μM, Day 4, C57BL/6
# [5] = vincristine 0.02 μM, Day 8, C57BL/6
# [6] = vincristine 0.02 μM, Day 10, C57BL/6
# [7] = vincristine 0.05 μM, Day 4, C57BL/6
# [8] = vincristine 0.05 μM, Day 8, C57BL/6
# [9] = vincristine 0.05 μM, Day 10, C57BL/6
# [10] = vincristine 0.1 μM, Day 4, C57BL/6
# [11] = vincristine 0.1 μM, Day 8, C57BL/6
# [12] = vincristine 0.1 μM, Day 10, C57BL/6
# [13] = Day 4, continuous 0.01 μM vincristine
# [14] = Day 8, continuous 0.01 μM vincristine
# [15] = Day 10, continuous 0.01 μM vincristine
substance,measurement,setting,value
Vincristine sulfate salt,halo area at day 10 compared to day 0,"[1]; C57BL/6, vincristine 0.01 μM",42.86±7.30%
same,length of longest axons at day 10 compared to day 0,"[1]; C57BL/6, vincristine 0.01 μM",50.99±5.97%
same,halo area at day 10 compared to day 0,"[1]; C57BL/6, vincristine 0.1 μM",0.45±0.09%
same,length of longest axons at day 10 compared to day 0,"[1]; C57BL/6, vincristine 0.1 μM",3.56±0.62%
same,Area of DRG Halo,[1]; [2],7.34 ± 0.78 mm^2
same,Length of Longest Neurite,[1]; [2],1.77 ± 0.12 mm
same,Area of DRG Halo,"[1]; vincristine 0.01 μM, Day 8, C57BL/6",5.79 ± 0.86 mm^2
same,Area of DRG Halo,[1]; [3],4.42 ± 0.85 mm^2
same,Length of Longest Neurite,[1]; [3],1.22 ± 0.17 mm
same,Area of DRG Halo,[1]; [4],4.56 ± 1.10 mm^2
same,Length of Longest Neurite,[1]; [4],1.28 ± 0.22 mm
same,Area of DRG Halo,[1]; [5],1.14 ± 0.49 mm^2
same,Length of Longest Neurite,[1]; [5],0.53 ± 0.16 mm
same,Area of DRG Halo,[1]; [6],0.56 ± 0.27 mm^2
same,Length of Longest Neurite,[1]; [6],0.41 ± 0.13 mm
same,Area of DRG Halo,[1]; [7],1.20 ± 0.47 mm^2
same,Length of Longest Neurite,[1]; [7],0.32 ± 0.08 mm
same,Area of DRG Halo,[1]; [8],0.05 ± 0.01 mm^2
same,Length of Longest Neurite,[1]; [8],0.09 ± 0.01 mm
same,Area of DRG Halo,[1]; [9],0.04 ± 0.01 mm^2
same,Length of Longest Neurite,[1]; [9],0.07 ± 0.01 mm
same,Area of DRG Halo,[1]; [10],0.46 ± 0.19 mm^2
same,Length of Longest Neurite,[1]; [10],0.30 ± 0.09 mm
same,Area of DRG Halo,[1]; [11],0.04 ± 0.01 mm^2
same,Length of Longest Neurite,[1]; [11],0.08 ± 0.01 mm
same,Area of DRG Halo,[1]; [12],0.04 ± 0.01 mm^2
same,Length of Longest Neurite,[1]; [12],0.08 ± 0.01 mm
same,"DRG area, % of control values",C57BL/6 DRG axons,32%
same,"axon length, % of control values",C57BL/6 DRG axons,35%
same,Area of DRG halo (% of Day 0),rat DRG cultures; [13],30.43 ± 5.05 % of Day 0
same,Length of axons (% of Day 0),rat DRG cultures; [13],48.79 ± 4.72 % of Day 0
same,Area of DRG halo (% of Day 0),rat DRG cultures; [14],13.23 ± 1.52 % of Day 0
same,Length of axons (% of Day 0),rat DRG cultures; [14],35.86 ± 3.76 % of Day 0
same,Area of DRG halo (% of Day 0),rat DRG cultures; [15],9.78 ± 2.22 % of Day 0
same,Length of axons (% of Day 0),rat DRG cultures; [15],26.28 ± 4.08 % of Day 0
same,halo area at day 10 compared to day 0,Wld^S cultured neurites; vincristine 0.01 μM,64.75±2.62%
same,length of longest axons at day 10 compared to day 0,Wld^S cultured neurites; vincristine 0.01 μM,84.33±2.54%
same,halo area at day 10 compared to day 0,Wld^S cultured neurites; vincristine 0.1 μM,7.92±3.83%
same,length of longest axons at day 10 compared to day 0,Wld^S cultured neurites; vincristine 0.1 μM,10.17±3.22%
same,Area of DRG Halo,"Wld^S cultured neurites; vincristine 0.01 μM, Day 4, Wld^S",7.27 ± 0.51 mm^2
same,Area of DRG Halo,"Wld^S cultured neurites; vincristine 0.01 μM, Day 8, Wld^S",6.50 ± 0.56 mm^2
same,Area of DRG Halo,"Wld^S cultured neurites; vincristine 0.01 μM, Day 10, Wld^S",5.60 ± 0.51 mm^2
same,Area of DRG Halo,"Wld^S cultured neurites; vincristine 0.02 μM, Day 4, Wld^S",5.95 ± 0.72 mm^2
same,Area of DRG Halo,"Wld^S cultured neurites; vincristine 0.02 μM, Day 8, Wld^S",3.39 ± 0.64 mm^2
same,Area of DRG Halo,"Wld^S cultured neurites; vincristine 0.02 μM, Day 10, Wld^S",2.53 ± 0.59 mm^2
same,Area of DRG Halo,"Wld^S cultured neurites; vincristine 0.05 μM, Day 4, Wld^S",4.17 ± 0.45 mm^2
same,Area of DRG Halo,"Wld^S cultured neurites; vincristine 0.05 μM, Day 8, Wld^S",1.63 ± 0.48 mm^2
same,Area of DRG Halo,"Wld^S cultured neurites; vincristine 0.05 μM, Day 10, Wld^S",0.80 ± 0.36 mm^2
same,Area of DRG Halo,"Wld^S cultured neurites; vincristine 0.1 μM, Day 4, Wld^S",5.30 ± 0.86 mm^2
same,Area of DRG Halo,"Wld^S cultured neurites; vincristine 0.1 μM, Day 8, Wld^S",2.00 ± 0.66 mm^2
same,Area of DRG Halo,"Wld^S cultured neurites; vincristine 0.1 μM, Day 10, Wld^S",0.59 ± 0.28 mm^2

# Reference: patent US20040127439A1, “Introduction of the wld gene for prevention of axonal degeneration in neurological diseases” (priority 2004, published 2004)
